Patent publication US20080015237A1 (ASTRAZENECA AB, priority 2006, published 2008)

Target: human Kv1.5 channel (Homo sapiens, UniProt P22460)
Assay: Test A: Rb+ efflux assay
Assay type: cell-based
Conditions: CHO cells stably transfected with cDNA for human Kv1.5
Experimental: This assay identifies compounds that block the human Kv1.5 channel potassium channel heterologously expressed in Chinese Hamster Ovary (CHO) cells by means of Rb+ ion efflux using Flame Atomic Absorption Spectroscopy. For experimental studies, CHO cells stably transfected with cDNA for human Kv1.5 were grown as confluent layers in Falcon, 384-well tissue culture-treated black-walled clear-bottomed plates and the plates were incubated overnight at 37° C. in a cell culture incubator.
After incubating overnight the cell plates were washed and a buffer containing Rb+ ions were added to the cell plates. The plates were then incubated for another 3-4 hours in a CO2-incubator (37° C.). Following this incubation period plates were washed, compounds were added and subsequently a buffer containing elevated K+ concentrations were added in order to activate the Kv1.5 channel. Following a short incubation time, aliquots of the supernatants were transferred to supernatant plates for subsequent determination of the Rb+ content using Atomic Absorption Spectrometry (ICR8000 instrument, Aurora Biomed Inc.).

Chain of human Kv1.5 channel (P22460 whole entry): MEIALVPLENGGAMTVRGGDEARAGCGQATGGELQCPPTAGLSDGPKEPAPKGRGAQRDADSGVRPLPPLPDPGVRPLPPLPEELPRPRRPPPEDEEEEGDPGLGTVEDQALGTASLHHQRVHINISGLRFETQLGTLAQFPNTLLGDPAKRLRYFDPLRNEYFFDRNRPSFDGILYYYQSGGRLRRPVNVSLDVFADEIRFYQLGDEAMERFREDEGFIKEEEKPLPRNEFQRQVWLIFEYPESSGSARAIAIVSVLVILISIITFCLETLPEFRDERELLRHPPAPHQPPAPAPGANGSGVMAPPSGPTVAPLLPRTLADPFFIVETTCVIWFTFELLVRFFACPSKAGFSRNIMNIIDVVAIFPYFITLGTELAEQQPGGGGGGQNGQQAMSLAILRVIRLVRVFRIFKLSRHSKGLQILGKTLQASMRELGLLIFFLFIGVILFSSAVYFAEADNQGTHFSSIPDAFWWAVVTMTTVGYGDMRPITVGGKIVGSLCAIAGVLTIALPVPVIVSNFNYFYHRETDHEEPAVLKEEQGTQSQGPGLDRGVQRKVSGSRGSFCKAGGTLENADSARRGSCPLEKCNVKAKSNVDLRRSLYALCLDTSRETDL

Row | IC50 [nM] | SMILES
1 | 2500 | O=C(NCc1ccccc1)C1c2ccccc2C(=O)N1Cc1ccccc1Br (centres unmarked) [N-benzyl-2-(2-bromobenzyl)-3-oxoisoindoline-1-carboxamide]
2 | 3000 | Cc1c(OCF)ccc2c1C(=O)N(CC(C)c1ccc(Cl)cc1)C2C(=O)NC(C)(C)C (centres unmarked) [N-(tert-butyl)-2-[2-(4-chlorophenyl)propyl]-5-(fluoromethoxy)-4-methyl-3-oxoisoindoline-1-carboxamide]
3 | 2900 | CC(C)(C)CN1C(=O)c2ccccc2C1C(=O)NCc1cccc(Cl)c1 (centres unmarked) [N-(3-chlorobenzyl)-2-(2,2-dimethylpropyl)-3-oxoisoindoline-1-carboxamide]
4 | 8000 | O=C(NCCCC(F)F)C1c2ccccc2C(=O)N1C(c1ccccc1)c1ccccc1 (centres unmarked) [N-(4,4-difluorobutyl)-2-(diphenylmethyl)-3-oxoisoindoline-1-carboxamide]
5 | 5600 | CC(C)(C)NC(=O)C1c2ccccc2C(=O)N1Cc1cc(F)ccc1-c1ccc(F)cc1 (centres unmarked) [N-(tert-butyl)-2-[(4,4′-difluorobiphenyl-2-yl)methyl]-3-oxoisoindoline-1-carboxamide]
6 | 550 | C[C@H](c1ccccc1)N1C(=O)c2ccc(Cl)cc2C1C(=O)NCc1ccccc1 (stereo partly drawn) [N-benzyl-6-chloro-3-oxo-2-[(1R)-1-phenylethyl]isoindoline-1-carboxamide]
7 | 2300 | CCCNC(=O)C1c2cc(F)ccc2C(=O)N1CC(C)c1ccc(Cl)cc1 (centres unmarked) [2-[2-(4-chlorophenyl)propyl]-6-fluoro-3-oxo-N-propylisoindoline-1-carboxamide]
8 | 1300 | O=C(NCCCC(F)F)C1c2cc(Cl)ccc2C(=O)N1Cc1ccccc1C1CCCC1 (centres unmarked) [6-chloro-2-(2-cyclopentylbenzyl)-N-(4,4-difluorobutyl)-3-oxoisoindoline-1-carboxamide]
9 | 1700 | CC(C)(CO)CN1C(=O)c2ccc(F)cc2C1C(=O)NCc1cccc(C(F)(F)F)c1 (centres unmarked) [6-fluoro-2-(3-hydroxy-2,2-dimethylpropyl)-3-oxo-N-[3-(trifluoromethyl)benzyl]isoindoline-1-carboxamide]
10 | 730 | CCCCNC(=O)C1c2cc(F)ccc2C(=O)N1CC(C)c1ccc(Cl)cc1 (single isomer, unassigned) [(1S or 1R)-N-butyl-2-[(2R or 2S)-2-(4-chlorophenyl)propyl]-6-fluoro-3-oxoisoindoline-1-carboxamide]
11 | 2800 | CC(C)(C)NC(=O)C1c2cc(Cl)ccc2C(=O)N1C(c1ccccc1)c1ccccc1 (centres unmarked) [N-(tert-butyl)-6-chloro-2-(diphenylmethyl)-3-oxoisoindoline-1-carboxamide]
12 | 15000 | CCCCNC(=O)C1c2cc(F)ccc2C(=O)N1CC(C)c1ccc(Cl)cc1 (single isomer, unassigned) [(1S or 1R)-N-butyl-2-[(2S or 2R)-2-(4-chlorophenyl)propyl]-6-fluoro-3-oxoisoindoline-1-carboxamide]
13 | 840 | O=C(NCc1ccccc1)C1c2cc(Br)ccc2C(=O)N1Cc1ccccc1 (centres unmarked) [N,2-dibenzyl-6-bromo-3-oxoisoindoline-1-carboxamide]
14 | 1700 | CCCCNC(=O)C1c2cc(F)ccc2C(=O)N1CC(C)c1ccc(Cl)cc1 (single isomer, unassigned) [(1R or 1S)-N-butyl-2-[(2S or 2R)-2-(4-chlorophenyl)propyl]-6-fluoro-3-oxoisoindoline-1-carboxamide]
15 | 680 | CC(CN1C(=O)c2ccc(Cl)cc2C1C(=O)NCc1cccnc1)c1ccc(Cl)cc1 (centres unmarked) [6-chloro-2-[2-(4-chlorophenyl)propyl]-3-oxo-N-(pyridin-3-ylmethyl)isoindoline-1-carboxamide]
16 | 9300 | CC(C)(C)NC(=O)C1c2ccccc2C(=O)N1Cc1ccc(F)cc1-c1ccc(F)cc1 (centres unmarked) [N-(tert-butyl)-2-[(4′,5-difluorobiphenyl-2-yl)methyl]-3-oxoisoindoline-1-carboxamide]
17 | 780 | CC(CN1C(=O)c2ccccc2C1C(=O)NCc1ccc(C(F)(F)F)nc1)c1ccc(Cl)cc1 (centres unmarked) [2-[2-(4-chlorophenyl)propyl]-3-oxo-N-{[6-(trifluoromethyl)pyridin-3-yl]methyl}isoindoline-1-carboxamide]
18 | 930 | CCN(Cc1ccccc1)C(=O)C1c2ccccc2C(=O)N1CCc1ccc(Cl)cc1 (centres unmarked) [N-benzyl-2-[2-(4-chlorophenyl)ethyl]-N-ethyl-3-oxoisoindoline-1-carboxamide]
19 | 1800 | O=C(NCc1ccccc1)C1c2ccccc2C(=O)N1CCC1=CCCCC1 (centres unmarked) [N-benzyl-2-(2-cyclohex-1-en-1-ylethyl)-3-oxoisoindoline-1-carboxamide]
20 | 2800 | N#Cc1ccc(CNC(=O)C2c3ccccc3C(=O)N2Cc2ccccc2-c2ccccc2)cc1 (centres unmarked) [2-(biphenyl-2-ylmethyl)-N-(4-cyanobenzyl)-3-oxoisoindoline-1-carboxamide]
21 | 500 | CCCCNC(=O)C1c2cc(F)ccc2C(=O)N1CC(C)c1ccc(Cl)cc1 (single isomer, unassigned) [(1R or 1S)-N-butyl-2-[(2R or 2S)-2-(4-chlorophenyl)propyl]-6-fluoro-3-oxoisoindoline-1-carboxamide]

Row | IC50 [nM] | SMILES
22 | 6700 | CC(C)(C)NC(=O)C1c2cc(F)ccc2C(=O)N1Cc1ccccc1-c1ccccc1 (centres unmarked) [2-(biphenyl-2-ylmethyl)-N-(tert-butyl)-6-fluoro-3-oxoisoindoline-1-carboxamide]
23 | 340 | CC(C)(CO)CN1C(=O)c2ccc(F)cc2C1C(=O)NCc1cccc(Cl)c1 (centres unmarked) [N-(3-chlorobenzyl)-6-fluoro-2-(3-hydroxy-2,2-dimethylpropyl)-3-oxoisoindoline-1-carboxamide]
24 | 1800 | CC(CN1C(=O)c2ccccc2C1C(=O)NCCCC(F)(F)F)c1ccc(Cl)cc1 (centres unmarked) [2-[2-(4-chlorophenyl)propyl]-3-oxo-N-(4,4,4-trifluorobutyl)isoindoline-1-carboxamide]
25 | 6000 | CC(c1ccccc1)N1C(=O)c2ccccc2C1C(=O)NCc1ccccc1 (centres unmarked) [N-benzyl-3-oxo-2-(1-phenylethyl)isoindoline-1-carboxamide]
26 | 1300 | C[C@H](c1ccccc1)N1C(=O)c2ccc(F)cc2C1C(=O)NCc1ccccc1 (stereo partly drawn) [N-benzyl-6-fluoro-3-oxo-2-[(1R)-1-phenylethyl]isoindoline-1-carboxamide]
27 | 1800 | CC(CN1C(=O)c2ccccc2C1C(=O)NCc1ccc(N(C)C)cc1)c1ccc(Cl)cc1 (centres unmarked) [2-[2-(4-chlorophenyl)propyl]-N-[4-(dimethylamino)benzyl]-3-oxoisoindoline-1-carboxamide]
28 | 560 | O=C(NCc1ccccc1)C1c2ccccc2C(=O)N1CCc1ccc(Cl)cc1 (centres unmarked) [N-benzyl-2-[2-(4-chlorophenyl)ethyl]-3-oxoisoindoline-1-carboxamide]
29 | 2800 | CCCNC(=O)C1c2cc(F)ccc2C(=O)N1Cc1ccccc1-c1ccccc1 (centres unmarked) [2-(biphenyl-2-ylmethyl)-6-fluoro-3-oxo-N-propylisoindoline-1-carboxamide]
30 | 710 | COc1ccc2c(c1)C(=O)N(CC(C)c1ccc(Cl)cc1)C2C(=O)NCc1ccccc1 (centres unmarked) [N-benzyl-2-[2-(4-chlorophenyl)propyl]-5-methoxy-3-oxoisoindoline-1-carboxamide]
31 | 2000 | Cc1c(O)ccc2c1C(=O)N(Cc1ccccc1-c1ccc(F)c(F)c1)C2C(=O)NC(C)(C)C (centres unmarked) [N-(tert-butyl)-2-[(3′,4′-difluorobiphenyl-2-yl)methyl]-5-hydroxy-4-methyl-3-oxoisoindoline-1-carboxamide]
32 | 2800 | CC(CN1C(=O)c2ccc(Cl)cc2C1C(=O)NCc1ccc(S(C)(=O)=O)cc1)c1ccc(Cl)cc1 (centres unmarked) [6-chloro-2-[2-(4-chlorophenyl)propyl]-N-[4-(methylsulfonyl)benzyl]-3-oxoisoindoline-1-carboxamide]
33 | 17000 | Cc1c(O)ccc2c1C(=O)N(Cc1ccccc1-c1ccccc1)C2C(=O)NC(C)(C)C (single isomer, unassigned) [(S or R) 2-(biphenyl-2-ylmethyl)-N-(tert-butyl)-5-hydroxy-4-methyl-3-oxoisoindoline-1-carboxamide]
34 | 1500 | CC(c1ccccc1)N1C(=O)c2ccccc2C1C(=O)NCc1ccccc1 (single isomer, unassigned) [(1R or 1S)-N-benzyl-3-oxo-2-[(1S or 1R)-1-phenylethyl]isoindoline-1-carboxamide]
35 | 460 | CC(CN1C(=O)c2ccc(Cl)cc2C1C(=O)NCCCC(F)(F)F)c1ccc(Cl)cc1 (centres unmarked) [6-chloro-2-[2-(4-chlorophenyl)propyl]-3-oxo-N-(4,4,4-trifluorobutyl)isoindoline-1-carboxamide]
36 | 210 | C[C@H](c1ccccc1)N1C(=O)c2ccc(Br)cc2C1C(=O)NCc1ccccc1 (stereo partly drawn) [N-benzyl-6-bromo-3-oxo-2-[(1R)-1-phenylethyl]isoindoline-1-carboxamide]
37 | 1000 | O=C(NCc1ccccc1)C1c2ccccc2C(=O)N1Cc1ccccc1-c1ccccc1 (centres unmarked) [N-benzyl-2-(biphenyl-2-ylmethyl)-3-oxoisoindoline-1-carboxamide]
38 | 3000 | CC(C)(C)NC(=O)C1c2c(O)cccc2C(=O)N1Cc1ccccc1-c1ccccc1 (centres unmarked) [2-(biphenyl-2-ylmethyl)-N-(tert-butyl)-7-hydroxy-3-oxoisoindoline-1-carboxamide]
39 | 2500 | Cn1nc(CN2C(=O)c3ccccc3C2C(=O)NC(C)(C)C)cc1-c1ccccc1 (centres unmarked) [N-(tert-butyl)-2-[(1-methyl-5-phenyl-1H-pyrazol-3-yl)methyl]-3-oxoisoindoline-1-carboxamide]
40 | 13000 | CC(C)(C)NC(=O)C1c2ccccc2C(=O)N1Cc1ccc(F)cc1-c1ccccc1 (centres unmarked) [N-(tert-butyl)-2-[(5-fluorobiphenyl-2-yl)methyl]-3-oxoisoindoline-1-carboxamide]
41 | 1000 | O=C(NCc1ccccc1)C1c2cc(F)ccc2C(=O)N1Cc1ccccc1-c1ccccc1 (centres unmarked) [N-benzyl-2-(biphenyl-2-ylmethyl)-6-fluoro-3-oxoisoindoline-1-carboxamide]
